# Experimental data taken from patent US11365207B2, “Sulfur-containing polycyclic-hydroxypyridone carboxamide analog against HIV” (priority 2018, dated 2022).
# Structures can show the parent of a compound that is named as a salt. Where two headings read alike, the source gives them in different places.
# Assays:
# Format in all cases: cell-based
# [1] = Toxicity test of C8166 cells (MTT colorimetric method); conditions: human
# Method: (§1) Human T lymphocytic series C8166 and HIV-1 experiment strain HIV-1IIIB are both from National Institutes of Health (NIH); cells are cultured in the RPMI-1640 complete culture medium containing 10% fetal bovine serum. HIV-1IIIB is prepared by using a conventional method, titration and calculation of TCID 50 of viruses are performed. Virus stock solution is subpackaged and stored at −70° C. Cells and viruses are cryopreserved and recovered according to conventional methods.
# 6. Toxicity Test of C8166 Cells
# 100 μl of 4×10^5 ml C8166 was mixed with different to-be-detected drug solutions, and 3 repetition wells were set. Meanwhile, control wells were set. Culture was performed for 3 days under the conditions of 37° C. and 5% CO2. Cytotoxicity was detected with MTT colorimetric method. The OD value was measured with EL ×800 ELIASA, the wavelength was measured as 570/630 nm. The CC50 value was calculated (50% cytotoxic concentration), namely, the concentration of the drug when toxicity was generated for 50% normal T lymphocytic series C8166.
# (§2) According to experiment results, fitted curves are drawn using Origin2016, the 50% effective concentrations (EC50) of the samples inhibiting viruses, 50% cell growth inhibition concentrations (CC50) and TI (therapeutic index) value against HIV-1 activity are calculated based on Reed & Muench method, and the TI value is TI=CC50/EC50.
# 1. Cell growth survival rate (%)=experiment well OD value/control well OD value×100
# HIV-1IIIB [2] = test: Inhibition experiment for cytopathic effect (CPE) of HIV-1IIIB, syncytia formation in C8166 cells; conditions: Human immunodeficiency virus 1, 72 h, HIV-1IIIB in C8166 cells, 3 days
# Method: as §1
# 7. Inhibition Experiment for Cytopathic Effect (CPE) of HIV-1IIIB
# 8×10^5/ml C8166 cells were inoculated onto the 96-well cell culture plate containing 100 μl/well drug subjected to gradient multiple proportion dilution in an amount of 50 μl/well, and then 50 μl HIV-1IIIB was added to dilute the supernatant, 1300 TCID 50/well. 3 repetition wells were set. Meanwhile, normal cell control wells without drugs were set. TDF and dolutegravir were positive drug controls. Culture was performed for 3 days under the conditions of 37° C. and 5% CO2, and syncytia formation were counted under the inverted microscope (100×). EC50 (50% Effective Concentration) is the concentration of the drug when 50% of syncytia formation is inhibited.
# as §2
# 2. HIV-1 cytopathic cell inhibition rate (%)=(1−experiment well syncytia number/control well syncytia number)×100
# HIV-1IIIB [3] = test: Inhibition of replication in HIV-1IIIB acute infectious C8166 cells (p24 antigen capture ELISA); conditions: for EC50: Human immunodeficiency virus 1, 72 h, P24 antigen, HIV-1IIIB acute infectious C8166 cells, 3 days; for inhibitory effect on HIV-1 replication in vitro: statement in words
# Method: as §1
# 5. Measurement of HIV-1 p24 Antigen with p24 Antigen Capture ELISA Method
# The 1 μg/plate of anti-mouse IgG Fc antibody was paved at 4° C. for overnight; the plate was sealed with 5% skimmed milk powder 4° C. for overnight; 100 μl/well mouse anti-p24 monoclonal antibody was added at 37° C. for 1 h; 100 μl/well (1:100) diluted rabbit anti-p24 polyclonal antibody (homemade) was added for 1 h at 37° C.; 100 μl/well (1:20000) diluted goat anti-rabbit IgG HRP was added for 1 h at 37° C.; OPD substrate reaction solution was added. After 10 min, 2M sulfuric acid was added to stop the reaction. The OD value was determined by Elx800 ELISA, and the wavelength was measured as 490/630 nm. The inhibition rate and EC50 of the drug on the p24 antigen replication and expression of HIV-1, namely, the concentration of the drug inhibiting 50% HIV-1 p24 antigen were calculated, namely, the concentration of the drug inhibiting 50% HIV-1 p24 antigen expression was calculated.
# 8. Inhibition Effect of Samples on Replication in Experiment Strain HIV-1IIIB Acute Infectious C8166 Cells
# 4×10^5 cells/ml C8166 cells and HIV-1IIIB MOI (multiplicity of infection=0.04) are infected for 2 h at 37° C., the obtained mixture is washed three times with PBS to remove free virus ions, 100 μl of cells are inoculated onto the 96-well plate containing 100 μl of to-be-detected compounds having different dilutions and cultured for 3 days under the conditions of 37° C. and 5% CO2. The cultural supernatant is centrifuged and then collected, and finally lysed and inactivated with 0.5% Triton X-100. The inhibition effect of the drug on HIV-1 replication is detected by using the p24 antigen capture ELISA method.
# as §2
# 3. HIV-1 p24 antigen expression inhibition rate (%)=(1−experiment well OD value/control well OD value)×100
# [4] = C8166 cells (T lymphocytic cell line), C8166 cells, MTT, 3 days, read-out: CC50
SMILES,EC50 (HIV-1IIIB [2]; values given in pM) [pM],EC50 (HIV-1IIIB [3]; values given in pM) [pM],"CC50 at 3 days [1, 4] [µM]",other results
O=C(NCc1c(F)cc(F)cc1F)c1cn2c(c(O)c1=O)C(=O)N1C(C2)S[C@@H]2CC[C@H]1C2 (stereo partly shown) [Compound 34],35.9 ± 6.11,38.1 ± 6.52,,CC50 at 3 days [1]: 20.7 ± 0.32 µM; inhibitory effect on HIV-1 replication in vitro (HIV-1IIIB [3]): extremely strong inhibition effects; inhibitory effect on HIV-1 replication in vitro (HIV-1IIIB [3]; listed as compound 34): strong inhibitory effect
CC(C)C1CSC2Cn3cc(C(=O)NCc4ccc(F)cc4F)c(=O)c(O)c3C(=O)N21 (stereo not shown) [Compound 5],162 ± 18.1,188 ± 22.8,16.1 ± 0.3,
C[C@@H]1CCSC2Cn3cc(C(=O)NCc4ccc(F)cc4F)c(=O)c(O)c3C(=O)N21 (stereo partly shown) [Compound 18],10.2 ± 2.11,11.1 ± 2.09,14 ± 0.21,inhibitory effect on HIV-1 replication in vitro (HIV-1IIIB [3]): extremely strong inhibition effects; inhibitory effect on HIV-1 replication in vitro (HIV-1IIIB [3]; listed as compound 18): strong inhibitory effect
CC(C)[C@H]1CSC2Cn3cc(C(=O)NCc4ccc(F)cc4F)c(=O)c(O)c3C(=O)N21 (stereo partly shown) [Compound 6],182 ± 20.3,208 ± 36.1,22.6 ± 0.48,
CC[C@@H]1CSC2Cn3cc(C(=O)NCc4ccc(F)cc4F)c(=O)c(O)c3C(=O)N21 (stereo partly shown) [Compound 3],28.9 ± 5.11,35.1 ± 6.02,18.6 ± 0.35,
CC(C)(C)[C@H]1CSC2Cn3cc(C(=O)NCc4ccc(F)cc4F)c(=O)c(O)c3C(=O)N21 (stereo partly shown) [Compound 8],716 ± 103,781 ± 113,26.3 ± 0.35,
"CC(C)OC(=O)OCOP(=O)(CO[C@H](C)Cn1cnc2c(N)ncnc21)OCOC(=O)OC(C)C [TDF, tenofovir disoproxil fumarate, reference compound]",,,157 ± 21.4,EC50 (HIV-1IIIB [2]; values in nM): 12100 ± 11300 pM; EC50 (HIV-1IIIB [3]; values in nM): 8070 ± 4720 pM
C[C@H]1CSC2Cn3cc(C(=O)NCc4ccc(F)cc4F)c(=O)c(O)c3C(=O)N21 (stereo partly shown) [Compound 2],15.7 ± 2.61,18.1 ± 2.86,11.33 ± 0.11,inhibitory effect on HIV-1 replication in vitro (HIV-1IIIB [3]): extremely strong inhibition effects; inhibitory effect on HIV-1 replication in vitro (HIV-1IIIB [3]; listed as compound 2): strong inhibitory effect
O=C(NCc1ccc(F)cc1F)c1cn2c(c(O)c1=O)C(=O)N1C(C2)SC[C@@H]1c1ccccc1 (stereo partly shown) [Compound 10],,,45.16 ± 0.41,EC50 (HIV-1IIIB [2]; values in nM): 3820 ± 510 pM; EC50 (HIV-1IIIB [3]; values in nM): 4160 ± 580 pM
CC(C)C[C@H]1CSC2Cn3cc(C(=O)NCc4ccc(F)cc4F)c(=O)c(O)c3C(=O)N21 (stereo partly shown) [Compound 20],125 ± 17,148 ± 20.1,18.3 ± 0.19,
"C[C@@H]1CCO[C@H]2Cn3cc(C(=O)NCc4ccc(F)cc4F)c(=O)c(O)c3C(=O)N12 [Dolutegravir, reference compound]",,,26.6 ± 2.2,EC50 (HIV-1IIIB [2]; values in nM): 2130 ± 330 pM; EC50 (HIV-1IIIB [3]; values in nM): 1050 ± 120 pM
CC[C@H]1CSC2Cn3cc(C(=O)NCc4ccc(F)cc4F)c(=O)c(O)c3C(=O)N21 (stereo partly shown) [Compound 4],28.9 ± 5.11,35.1 ± 6.02,18.6 ± 0.35,
O=C(NCc1ccc(F)cc1F)c1cn2c(c(O)c1=O)C(=O)N1C(C2)SC[C@@H]1Cc1ccccc1 (stereo partly shown) [Compound 12],526 ± 77.1,589 ± 86.1,28.6 ± 0.32,
C[C@@H]1CSC2Cn3cc(C(=O)NCc4ccc(F)cc4F)c(=O)c(O)c3C(=O)N21 (stereo partly shown) [Compound 1],187 ± 31.1,201 ± 33.3,20.3 ± 0.21,
C[C@H]1CSC2Cn3cc(C(=O)NCc4ccc(F)cc4)c(=O)c(O)c3C(=O)N21 (stereo partly shown) [Compound 66],75.3 ± 8.61,83.6 ± 10.9,20.1 ± 0.21,inhibitory effect on HIV-1 replication in vitro (HIV-1IIIB [3]): strong inhibitory effect
